Laboratory results: patent US9233978B2, “6-fused heteroaryldihydropyrimidines for the treatment and prophylaxis of hepatitis B virus infection” (Hoffmann-La Roche Inc., priority 2014, dated 2016)
pEC50: −log10 of the molar value. In brackets after ≈: the same amount, converted by molar mass.

Assays:
HBV = test: Anti-HBV activity in vitro, HepG2.2.15 cells, extracellular HBV DNA by qPCR; type: cell-based; settings: Hepatitis B virus, HepG2.2.15, 120 h, HepG2.2.15 cells; HBV replication inhibited by 50%, extracellular HBV DNA by qPCR; five days after compound treatment; read-out: EC50
Procedure, shortened: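 Extracellular HBV DNA in culture supernatant was measured by qPCR after nucleic acid extraction. The supernatant came from constitutively replicating HepG2.2.15 cells exposed for five days to half-log-diluted compounds, with DMSO at 0.5% final. Cells had been plated overnight at 37 °C beforehand.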

[1] = Cytotoxicity in HepDE19 cells (CCK-8) and selectivity index; type: cell-based; settings: human, HepDE19 cells; CCK-8 cell viability; five days after treatment
Description: (§1) HepG2.2.15 and HepDE19 are stably-transfected cell lines containing the HBV genome. Both cell lines are derived from the hepatoblastoma cell line Hep G2 (American Type Culture Collection, ATCC® HB-8065™) by the published procedures described in references: MA Selles et al. Proc. Natl. Acad. Sci. USA 1987, 84, 1005-1009 and H Guo et al. Journal of Virology 2007, 81, 12472-12484, respectively. Both cell lines were maintained in Dulbecco's modified Eagle's medium (DMEM)-F12 medium supplemented with 10% fetal bovine serum, 100 U/mL penicillin, 100 μg/mL streptomycin, and 0.5 mg/mL of G418.
(§2) HepDE19 cells were seeded into 96-well plates (5×10^3 cells per well) and treated with compounds for EC50 determination. Five days after treatment, cell viability was measured by addition of 20 μL of CCK-8 reagent. Two hours after incubation at 37° C., the absorbance at wavelengths of 450 nm and 630 nm (OD450 and OD630) was recorded by a plate reader. The concentration results in the death of 50% of the host cells (CC50) of each compound were determined.
(§3) The relative effectiveness of the compound in inhibiting viral replication compared to inducing cell death was defined as the selectivity index (CC50 value/EC50 value). Based on CC50 and EC50 data, selectivity indexes were determined.

HepDE19 cells = test: as above; type: cell-based; settings: CC50 (HepDE19) value / EC50 (HepG2.2.15) value
Description: as §1, §2, §3

[2] = Human microsomal metabolic stability; type: in vitro ADME; settings: human microsomes 0.5 mg/mL, 1 μM test compound, NADPH, 37° C., pH 7.4, 0-30 minutes
Procedure, shortened: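 1 μM compound with 0.5 mg/mL human liver microsomal protein in 100 mM phosphate pH 7.4 at 37° C, started with 1 mM NADPH or a NADPH-regenerating system. Sampled at 0–30 min, quenched in cold methanol with tolbutamide internal standard; remaining parent quantified by LC-MS/MS.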

Lysa solubility = type: physicochemical; settings: 0.05 M phosphate buffer (pH 6.5); for solubility thermodynamic: phosphate buffer, pH 6.5, aqueous buffer, thermodynamic from solid
Procedure, shortened: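 Duplicate samples dried from 10 mM DMSO stocks, taken up in 0.05 M phosphate buffer pH 6.5, stirred 1 h, shaken 2 h and left overnight. Filtrate and 1/10 dilution quantified by direct UV or HPLC-UV, in μg/mL; above 80% of the calculated maximum, reported as greater than that value.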

CCOC(=O)C1=C(CN2CCN3C(=O)N(Cc4ccc(C(=O)O)cc4)CC3C2)NC(c2nccs2)=N[C@H]1c1cccc(F)c1Cl (stereo partly drawn) [Example 66, (R)-6-[2-(4-Carboxy-benzyl)-3-oxo-hexahydro-imidazo[1,5-a]pyrazin-7-ylmethyl]-4-(2-chloro-3-fluoro-phenyl)-2-thiazol-2-yl-1,4-dihydro-pyrimidine-5-carboxylic acid ethyl ester]
pEC50 (HBV): 8.40 | CC50 at 5 days [1]: 60000 nM | Selectivity index (CC50/EC50) (HepDE19 cells): 15000 | Human Microsomal Clearance [2]: 7.1 mL/min/kg

COC(=O)C1=C(CN2CCN3C(=O)N(C4CC4)C[C@@H]3[C@H]2C(=O)O)NC(c2nccs2)=N[C@H]1c1ccc(F)c(F)c1C (single isomer, unassigned) [Example 83B]
pEC50 (HBV): 8.05 | CC50 at 5 days [1]: > 100000 nM | Selectivity index (CC50/EC50) (HepDE19 cells): >11111 | Lysa (Lysa solubility): 780 µg/mL | Human Microsomal Clearance [2]: 2.9 mL/min/kg

COC(=O)C1=C(CN2CCN3C(=O)N(Cc4ccc(C(=O)O)cc4)CC3C2)NC(c2nccs2)=N[C@H]1c1ccc(F)cc1Cl (stereo partly drawn) [Example 65, (R)-6-[2-(4-Carboxy-benzyl)-3-oxo-hexahydro-imidazo[1,5-a]pyrazin-7-ylmethyl]-4-(2-chloro-4-fluoro-phenyl)-2-thiazol-2-yl-1,4-dihydro-pyrimidine-5-carboxylic acid methyl ester]
pEC50 (HBV): 8.05 | CC50 at 5 days [1]: > 100000 nM | Selectivity index (CC50/EC50) (HepDE19 cells): >11111 | solubility thermodynamic (Lysa solubility): 194 µg/mL (≈ 304 µM) | Human Microsomal Clearance [2]: 6.2 mL/min/kg

COC(=O)C1=C(CN2CCN3C(=O)N(CC(C)(C)C(=O)O)C[C@@H]3C2)NC(c2nccs2)=N[C@H]1c1cccc(F)c1C [Example 44, 3-[(8aS)-7-[[(4S)-4-(3-fluoro-2-methyl-phenyl)-5-methoxycarbonyl-2-thiazol-2-yl-1,4-dihydropyrimidin-6-yl]methyl]-3-oxo-5,6,8,8a-tetrahydro-1H-imidazo[1,5-a]pyrazin-2-yl]-2,2-dimethyl-propanoic acid]
pEC50 (HBV): 7.80 | CC50 at 5 days [1]: > 100000 nM | Selectivity index (CC50/EC50) (HepDE19 cells): >6369 | solubility thermodynamic (Lysa solubility): 207 µg/mL (≈ 354 µM) | Human Microsomal Clearance [2]: 1.7 mL/min/kg

CCOC(=O)C1=C(CN2CCN3C(=O)N(CC4(C(=O)O)CCC4)C[C@@H]3C2)NC(c2nccs2)=N[C@H]1c1cccc(F)c1Cl [Example 60, 6-[(S)-2-(1-Carboxy-cyclobutylmethyl)-3-oxo-hexahydro-imidazo[1,5-a]pyrazin-7-ylmethyl]-4-((R)-2-chloro-3-fluoro-phenyl)-2-thiazol-2-yl-1,4-dihydro-pyrimidine-5-carboxylic acid ethyl ester]
pEC50 (HBV): 8.22 | CC50 at 5 days [1]: 68000 nM | Selectivity index (CC50/EC50) (HepDE19 cells): 11333 | solubility thermodynamic (Lysa solubility): 436 µg/mL (≈ 691 µM)

CCOC(=O)C1=C(CN2CCN3C(=O)N(C(C)C)C[C@@H]3[C@H]2C(=O)O)NC(c2nccs2)=N[C@H]1c1cccc(F)c1Cl (single isomer, unassigned) [Example 84B]
pEC50 (HBV): 9.00 | CC50 at 5 days [1]: > 100000 nM | Selectivity index (CC50/EC50) (HepDE19 cells): >100000 | Lysa (Lysa solubility): 770 µg/mL | Human Microsomal Clearance [2]: 3.6 mL/min/kg

CCOC(=O)C1=C(CN2CCN3C(=O)N(CC(C)C)C[C@@H]3[C@H]2C(=O)O)NC(c2nccs2)=N[C@H]1c1cccc(F)c1Cl (single isomer, unassigned) [Example 101B]
pEC50 (HBV): 9.10 | CC50 at 5 days [1]: > 100000 nM | Selectivity index (CC50/EC50) (HepDE19 cells): >100000 | Human Microsomal Clearance [2]: 6.1 mL/min/kg

CCOC(=O)C1=C(CN2CCN3C(=O)OC[C@@H]3[C@H]2C(=O)O)NC(c2nccs2)=N[C@H]1c1cccc(F)c1Cl (single isomer, unassigned) [Example 102B]
pEC50 (HBV): 7.85 | CC50 at 5 days [1]: > 100000 nM | Selectivity index (CC50/EC50) (HepDE19 cells): >7142 | solubility thermodynamic (Lysa solubility): > 665 µg/mL | Human Microsomal Clearance [2]: 6.2 mL/min/kg

COC(=O)C1=C(CN2CCN3C(=O)N(CC4(C(=O)O)CC4)C[C@@H]3C2)NC(c2nccs2)=N[C@H]1c1ccc(F)cc1Cl [Example 35, 1-[[(8aS)-7-[[(4R)-4-(2-chloro-4-fluoro-phenyl)-5-methoxycarbonyl-2-thiazol-2-yl-1,4-dihydropyrimidin-6-yl]methyl]-3-oxo-5,6,8,8a-tetrahydro-1H-imidazo[1,5-a]pyrazin-2-yl]methyl]cyclopropanecarboxylic acid]
pEC50 (HBV): 7.96 | CC50 at 5 days [1]: > 100000 nM | Selectivity index (CC50/EC50) (HepDE19 cells): >9259 | solubility thermodynamic (Lysa solubility): > 754 µg/mL | Human Microsomal Clearance [2]: 0.3 mL/min/kg

COC(=O)C1=C(CN2CCN3C(=O)N(CC(C)(C)C(=O)O)C[C@@H]3C2)NC(c2nccs2)=N[C@H]1c1cccc(F)c1Cl [Example 41, 3-[(8aS)-7-[[(4R)-4-(2-chloro-3-fluoro-phenyl)-5-methoxycarbonyl-2-thiazol-2-yl-1,4-dihydropyrimidin-6-yl]methyl]-3-oxo-5,6,8,8a-tetrahydro-1H-imidazo[1,5-a]pyrazin-2-yl]-2,2-dimethyl-propanoic acid]
pEC50 (HBV): 7.85 | CC50 at 5 days [1]: > 100000 nM | Selectivity index (CC50/EC50) (HepDE19 cells): >7194 | solubility thermodynamic (Lysa solubility): > 804 µg/mL | Human Microsomal Clearance [2]: 2.0 mL/min/kg

CCCOC(=O)C1=C(CN2CCN3C(=O)N(CC(C)(C)C(=O)O)C[C@@H]3C2)NC(c2nccs2)=N[C@H]1c1cccc(F)c1Cl [Example 93, 3-[(8aS)-7-[[(4R)-4-(2-chloro-3-fluoro-phenyl)-5-propoxycarbonyl-2-thiazol-2-yl-1,4-dihydropyrimidin-6-yl]methyl]-3-oxo-5,6,8,8a-tetrahydro-1H-imidazo[1,5-a]pyrazin-2-yl]-2,2-dimethyl-propanoic acid]
pEC50 (HBV): 7.92 | CC50 at 5 days [1]: 86000 nM | Selectivity index (CC50/EC50) (HepDE19 cells): 7167

CCOC(=O)C1=C(CN2CCN3C(=O)N(CC(C)(C)C(=O)O)C[C@@H]3C2)NC(c2nc(C)cs2)=N[C@H]1c1cccc(F)c1Cl [Example 98, 3-[(8aS)-7-[[(4R)-4-(2-chloro-3-fluoro-phenyl)-5-ethoxycarbonyl-2-(4-methylthiazol-2-yl)-1,4-dihydropyrimidin-6-yl]methyl]-3-oxo-5,6,8,8a-tetrahydro-1H-imidazo[1,5-a]pyrazin-2-yl]-2,2-dimethyl-propanoic acid]
pEC50 (HBV): 7.96 | CC50 at 5 days [1]: 73000 nM | Selectivity index (CC50/EC50) (HepDE19 cells): 6636

COC(=O)C1=C(CN2CCN3C(=O)N(C(C)C)C[C@@H]3[C@H]2C(=O)O)NC(c2nccs2)=N[C@H]1c1ccc(F)c(F)c1C (single isomer, unassigned) [Example 85B]
pEC50 (HBV): 8.22 | CC50 at 5 days [1]: > 100000 nM | Selectivity index (CC50/EC50) (HepDE19 cells): >16667 | Lysa (Lysa solubility): 770 µg/mL

CCOC(=O)C1=C(CN2CCN3C(=O)NCC3(C(=O)OC)C2)NC(c2nccs2)=N[C@H]1c1cccc(F)c1Cl (stereo partly drawn) [Example 24, Methyl 7-[[(4R)-4-(2-chloro-3-fluoro-phenyl)-5-ethoxycarbonyl-2-thiazol-2-yl-1,4-dihydropyrimidin-6-yl]methyl]-3-oxo-2,5,6,8-tetrahydro-1H-imidazo[1,5-a]pyrazine-8a-carboxylate]
pEC50 (HBV): 9.00 | CC50 at 5 days [1]: 53000 nM | Selectivity index (CC50/EC50) (HepDE19 cells): 37857

CCOC(=O)C1=C(CN2CCN3C(=O)N(CC(C)(C)O)C[C@@H]3C2)NC(c2nccs2)=N[C@H]1c1cccc(F)c1Cl (single isomer, unassigned) [Example 106B]
pEC50 (HBV): 8.52 | CC50 at 5 days [1]: 65000 nM | Selectivity index (CC50/EC50) (HepDE19 cells): 21666

CCOC(=O)C1=C(CN2CCN3C(=O)N(C(C)C)C[C@@H]3C2)NC(c2nccs2)=N[C@H]1c1cccc(F)c1Cl (single isomer, unassigned) [Example 104B]
pEC50 (HBV): 8.40 | CC50 at 5 days [1]: 27000 nM | Selectivity index (CC50/EC50) (HepDE19 cells): >6750

CCOC(=O)C1=C(CN2CCN3C(=O)N(CC4CC4)C[C@@H]3[C@H]2C(=O)O)NC(c2nccs2)=N[C@H]1c1cccc(F)c1Cl (single isomer, unassigned) [Example 97B]
pEC50 (HBV): 9.05 | CC50 at 5 days [1]: > 100000 nM | Selectivity index (CC50/EC50) (HepDE19 cells): >100000
